PMC10545747, “Development of cyclopeptide inhibitors of cGAS targeting protein-DNA interaction and phase separation” (Nature Communications, 2023)
“And” between values parts separate entries of the source, which are not always exact repeats. Identical values can stand only once. Square brackets hold non-standard residues; d marks the D form. Peptide text beside a SMILES is read from it.

Key:
Assay type in all cases: cell-based, human
[1] = tested on: THP1-Lucia ISG cells infected by HSV-1; experiment: Luciferase reporter assay, HSV-1 infection; conditions: for luciferase activity, Fig. 5c: XQ2 10 μM
Description: THP1-Lucia ISG cells (Invivogen) were seeded into a 96-well plate and incubated with RU.521 (Invivogen) or XQ2 for the indicated time, and then transfected with dsDNA by lipofectamine 2000 (Invitrogen) or infected by HSV-1 with the indicated titer for 24 h. The supernatant was collected and 50 μL QUANTI-Luc Luciferase reagent (Invivogen) was added to 20 μL supernatants per well, and luciferase luminescence was detected by a microplate reader (BioTek Synergy H1) immediately.

THP1 cells = experiment: ELISA of IFN-β and CXCL10 after HSV-1 infection
Description: THP1 cells were seeded into 96-well plates, and cell culture supernatants were collected and analyzed by ELISA kits for human IFNβ levels (R&D Systems, Cat# DY814-05) and human CXCL10 levels (R&D Systems, Cat# DY266-05) according to the manufacturer’s instructions. Mice serum was collected and analyzed by ELISA kits for mouse IFNβ levels (R&D Systems, Cat# DY8234-05) and mouse CXCL10 levels (R&D Systems, Cat# DY466-05) according to the manufacturer’s protocols.

[2] = tested on: HSV-1-infected THP1 cells; experiment: HSV-1 cytopathogenic effect, CCK-8 viability; conditions: for cell viability, CCK-8, Fig. 5e: XQ2 10 μM
Description: Cell viability was measured by cell counting kit-8 (TargetMol) according to the manufacturer’s instructions.

CC(C)C[C@@H]1NC(=O)[C@H](CCCNC(=N)N)NC(=O)[C@H](C(C)C)NC(=O)[C@@H]2CCCN2C(=O)[C@@H](Cc2ccccc2)NC(=O)[C@H](CC(C)C)NC(=O)[C@H](CCCNC(=N)N)NC(=O)[C@H](C(C)C)NC(=O)[C@H](C)NC(=O)[C@@H](Cc2ccccc2)NC1=O [XQ2, Cyclo (LfAVRLfPVR)] (cyclo(L[dF]AVRL[dF]PVR))
HSV-1-induced luciferase reporter signal ([1]; 10 μM): further confirmed in the reporter cell line THP1 Lucia ISG
luciferase activity, Fig. 5c ([1]; Ctl): 1.148 and 1.262 and 1.5089
luciferase activity, Fig. 5c ([1]; HSV-1 1×10^4 pfu 24 h): 3.199 and 3.457 and 4.259
luciferase activity, Fig. 5c ([1]; HSV-1 2×10^4 pfu 24 h): 5.808 and 6.219 and 6.721
luciferase activity, Fig. 5c ([1]; HSV-1 5×10^4 pfu 24 h): 11.1309 and 12.5837 and 12.8036
production of IFN-β and CXCL10 upon HSV-1 infection (THP1 cells; 10 μM): significantly inhibited the production of IFN-β and CXCL10
IFN-β protein, ELISA, Fig. 5a (THP1 cells; HSV-1 1×10^5 pfu 24 h, XQ2 10 μM): 82.1785 and 88.212 and 94.6416
CXCL10 protein, ELISA, Fig. 5b (THP1 cells; HSV-1 2×10^4 pfu 24 h, XQ2 10 μM): 81.286 and 72.3045 and 81.612
CXCL10 protein, ELISA, Fig. 5b (THP1 cells; HSV-1 5×10^4 pfu 24 h, XQ2 10 μM): 1196.79 and 1171.64 and 1198.54
HSV-1 cytopathogenic effect in THP1 cells ([2]; 10 μM): HSV-1 produced marked cytopathogenic effect (CPE) in THP1 cells in the presence of XQ2
cell viability, CCK-8, Fig. 5e ([2]; Ctl): 102.857 and 110.714 and 112.321
cell viability, CCK-8, Fig. 5e ([2]; HSV-1 1×10^4 pfu): 101.071 and 114.286 and 103.571
cell viability, CCK-8, Fig. 5e ([2]; HSV-1 1×10^5 pfu): 37.5 and 43.3929 and 38.0357
cell viability, CCK-8, Fig. 5e ([2]; HSV-1 2×10^4 pfu): 57.3214 and 52.5 and 50.7143
cell viability, CCK-8, Fig. 5e ([2]; HSV-1 5×10^4 pfu): 52.8571 and 47.6786 and 46.7857
